Laboratory results taken from the NIST ThermoML archive (doi:10.1021/je900550v).
Numbers after ± are expanded uncertainties.

Conditions: 101.33 kPa, Liquid; for speed of sound: Sing-around technique in a fixed-path interferometer; for mass density: Vibrating tube method

CC(=O)[O-].C[NH2+]CCO [N-methyl-2-hydroxyethylammonium acetate]
Conditions	mass density [kg/m3]	speed of sound [m/s]	viscosity [mPa·s]
278.15 K	1112.83 ± 2.2	1848.3 ± 2.2	–
278.4 K	1112.68 ± 2.2	1847.6 ± 2.2	–
278.65 K	1112.54 ± 2.2	1846.8 ± 2.2	–
278.9 K	1112.38 ± 2.2	1846.1 ± 2.2	–
279.15 K	1112.23 ± 2.2	1845.4 ± 2.2	–
279.4 K	1112.08 ± 2.2	1844.7 ± 2.2	–
279.65 K	1111.93 ± 2.2	1843.9 ± 2.2	–
279.9 K	1111.78 ± 2.2	1843.2 ± 2.2	–
280.15 K	1111.63 ± 2.2	1842.5 ± 2.2	–
280.4 K	1111.48 ± 2.2	1841.8 ± 2.2	–
280.65 K	1111.33 ± 2.2	1841 ± 2.2	–
280.9 K	1111.18 ± 2.2	1840.3 ± 2.2	–
281.15 K	1111.03 ± 2.2	1839.6 ± 2.2	–
281.4 K	1110.88 ± 2.2	1838.9 ± 2.2	–
281.65 K	1110.74 ± 2.2	1838.2 ± 2.2	–
281.9 K	1110.58 ± 2.2	1837.5 ± 2.2	–
282.15 K	1110.43 ± 2.2	1836.8 ± 2.2	–
282.4 K	1110.28 ± 2.2	1836.1 ± 2.2	–
282.65 K	1110.13 ± 2.2	1835.4 ± 2.2	–
282.9 K	1109.98 ± 2.2	1834.7 ± 2.2	–
283.15 K	1109.83 ± 2.2	1834 ± 2.2	–
283.4 K	1109.68 ± 2.2	1833.3 ± 2.2	–
283.65 K	1109.53 ± 2.2	1832.6 ± 2.2	–
283.9 K	1109.38 ± 2.2	1832 ± 2.2	–
284.15 K	1109.22 ± 2.2	1831.3 ± 2.2	–
284.4 K	1109.07 ± 2.2	1830.6 ± 2.2	–
284.65 K	1108.92 ± 2.2	1829.9 ± 2.2	–
284.9 K	1108.77 ± 2.2	1829.2 ± 2.2	–
285.15 K	1108.62 ± 2.2	1828.6 ± 2.2	–
285.4 K	1108.47 ± 2.2	1827.9 ± 2.2	–
285.65 K	1108.32 ± 2.2	1827.2 ± 2.2	–
285.9 K	1108.17 ± 2.2	1826.5 ± 2.2	–
286.15 K	1108.02 ± 2.2	1825.9 ± 2.2	–
286.4 K	1107.86 ± 2.2	1825.2 ± 2.2	–
286.65 K	1107.71 ± 2.2	1824.5 ± 2.2	–
286.9 K	1107.56 ± 2.2	1823.8 ± 2.2	–
287.15 K	1107.41 ± 2.2	1823.2 ± 2.2	–
287.4 K	1107.26 ± 2.2	1822.5 ± 2.2	–
287.65 K	1107.11 ± 2.2	1821.8 ± 2.2	–
287.9 K	1106.95 ± 2.2	1821.2 ± 2.2	–
288.15 K	1106.8 ± 2.2	1820.5 ± 2.2	211.24 ± 21
288.4 K	1106.65 ± 2.2	1819.9 ± 2.2	–
288.65 K	1106.5 ± 2.2	1819.2 ± 2.2	–
288.9 K	1106.35 ± 2.2	1818.6 ± 2.2	–
289.15 K	1106.19 ± 2.2	1817.9 ± 2.2	–
289.4 K	1106.04 ± 2.2	1817.3 ± 2.2	–
289.65 K	1105.89 ± 2.2	1816.6 ± 2.2	–
289.9 K	1105.73 ± 2.2	1816 ± 2.2	–
290.15 K	1105.58 ± 2.2	1815.3 ± 2.2	–
290.4 K	1105.43 ± 2.2	1814.7 ± 2.2	–
290.65 K	1105.28 ± 2.2	1814 ± 2.2	–
290.9 K	1105.13 ± 2.2	1813.4 ± 2.2	–
291.15 K	1104.97 ± 2.2	1812.7 ± 2.2	–
291.4 K	1104.82 ± 2.2	1812.1 ± 2.2	–
291.65 K	1104.67 ± 2.2	1811.4 ± 2.2	–
291.9 K	1104.51 ± 2.2	1810.8 ± 2.2	–
292.15 K	1104.36 ± 2.2	1810.1 ± 2.2	–
292.4 K	1104.21 ± 2.2	1809.5 ± 2.2	–
292.65 K	1104.05 ± 2.2	1808.8 ± 2.2	–
292.9 K	1103.9 ± 2.2	1808.2 ± 2.2	–
293.15 K	–	–	145.8 ± 11
